Test results as given in patent US20240082194A1, “PREVENTIVE OR THERAPEUTIC AGENT FOR INFLAMMATORY DISORDERS AND/OR PAIN DISORDERS” (Kyowa Pharma Chemical Co., Ltd., priority 2021, published 2024).
Several values for one entry are separate records, joined by “and”; a condition that tells them apart may be missing. Equal entries are not always repeated.

System: adjuvant arthritis model rats
Assay: Rat adjuvant arthritis model: left hind limb (non-sensitized limb) volume
Format: in vivo, rat (male LEW rats)
Details: for Left hind limb volume, Mean: group mean n=5; for Left hind limb volume: individual animals
Method: Required amounts of GSSSG and indomethacin were weighed with an electronic balance, each ground well with a mortar, added to a solvent (0.5% methyl cellulose (MC) suspension), and suspended. The administration solution of GSSSG alone was prepared to have a concentration of 21.2 mg/mL (20 mg/mL on an anhydrous basis), and the administration solution of indomethacin alone was prepared to have a concentration of 0.06 mg/mL or 0.6 mg/mL. A combined administration solution was prepared by mixing a suspension prepared with GSSSG at 42.4 mg/mL (40 mg/mL on an anhydrous basis) with 0.12 mg/mL and 1.2 mg/mL indomethacin suspensions in equal amounts. The administration solution was prepared for 2 weeks at a time and stored under refrigeration and light shielding conditions until administration.
An appropriate amount of killed Mycobacterium tuberculosis (M. Tuberculosis H37Ra; BD) was ground in a mortar, and liquid paraffin was added thereto to prepare an adjuvant to 5 mg/mL. As experimental animals, 6-week-old male LEW rats were used. General condition observation and weight measurement were carried out upon arrival, and the presence or absence of abnormalities was confirmed.
The acclimation period was set to 7 days, and the general condition was observed once a day. On the last day of the acclimation period, left hind limb volume and body weight were measured to confirm that there were no abnormalities in body weight and general condition, and the animals were then used for a test.
On the last day of the acclimation period, the rats were sensitized with 50 μL of the prepared adjuvant under isoflurane inhalation anesthesia under the skin of the right hind limb plantar. In grouping, the rats were assigned to 6 groups (n=5) to ensure equal left hind limb volume and body weight.
The administration solution of indomethacin alone, the administration solution of GSSSG alone, and the combined administration solution were forcibly orally administered at a volume of 5 mL/kg for 14 days from the day of grouping. The dose was calculated based on the most recent body weight. The volume of the left hind limb (non-sensitized limb) was measured using a rat hind limb plantar edema volume measurement device (TK-101P; Natsume Seisakusho Co., Ltd.) on the last day of the acclimation period, the day of grouping, and twice a week after the day of grouping. The measurement was performed 5 times per rat per day, and an average value of 3 times excluding the highest and lowest values was taken as the volume.

[1] = GSSSG 100 mg/kg/day oral, day 0 (before sensitization)
[2] = GSSSG 100 mg/kg/day oral, day 9 (day of grouping, start of dosing)
[3] = GSSSG 100 mg/kg/day oral, day 13
[4] = GSSSG 100 mg/kg/day oral, day 16
[5] = GSSSG 100 mg/kg/day oral, day 20
[6] = GSSSG 100 mg/kg/day oral, day 23
[7] = Indomethacin 0.3 mg/kg/day oral, day 0 (before sensitization)
[8] = Indomethacin 0.3 mg/kg/day oral, day 9 (day of grouping, start of dosing)
[9] = Indomethacin 0.3 mg/kg/day oral, day 13
[10] = Indomethacin 0.3 mg/kg/day oral, day 16
[11] = Indomethacin 0.3 mg/kg/day oral, day 20
[12] = Indomethacin 0.3 mg/kg/day oral, day 23
[13] = Indomethacin 3 mg/kg/day oral, day 0 (before sensitization)
[14] = Indomethacin 3 mg/kg/day oral, day 9 (day of grouping, start of dosing)
[15] = Indomethacin 3 mg/kg/day oral, day 13
[16] = Indomethacin 3 mg/kg/day oral, day 16
[17] = Indomethacin 3 mg/kg/day oral, day 20
[18] = Indomethacin 3 mg/kg/day oral, day 23

Compound: N[C@@H](CCC(=O)N[C@@H](CSSSC[C@H](NC(=O)CC[C@H](N)C(=O)O)C(=O)NCC(=O)O)C(=O)NCC(=O)O)C(=O)O [GSSSG, glutathione trisulfide]
- Left hind limb volume, Mean [1]: 1.31 mL
- Left hind limb volume [1]: 1.21 mL and 1.39 mL (2×) and 1.29 mL (2×)
- Left hind limb volume, Mean [2]: 1.49 mL
- Left hind limb volume [2]: 1.29 mL and 1.52 mL and 1.58 mL (2×) and 1.51 mL
- Left hind limb volume, Mean [3]: 1.99 mL
- Left hind limb volume [3]: 1.45 mL and 2.35 mL and 2.08 mL and 2.06 mL and 2.00 mL
- Left hind limb volume, Mean [4]: 2.26 mL
- Left hind limb volume [4]: 1.41 mL and 2.64 mL (2×) and 2.28 mL and 2.35 mL
- Left hind limb volume, Mean [5]: 2.39 mL
- Left hind limb volume [5]: 1.72 mL and 2.82 mL and 2.58 mL and 2.53 mL and 2.31 mL
- Left hind limb volume, Mean [6]: 2.54 mL
- Left hind limb volume [6]: 1.67 mL and 3.22 mL and 2.77 mL and 2.69 mL and 2.34 mL
- anti-inflammatory effect (GSSSG alone administration group (100 mg/kg oral, 14 days)): no anti-inflammatory effect was observed

Compound: COc1ccc2c(c1)c(CC(=O)O)c(C)n2C(=O)c1ccc(Cl)cc1 [Indomethacin, indomethacin]
- Left hind limb volume, Mean [7]: 1.32 mL
- Left hind limb volume [7]: 1.39 mL and 1.24 mL and 1.37 mL and 1.30 mL and 1.29 mL
- Left hind limb volume, Mean [8]: 1.63 mL
- Left hind limb volume [8]: 1.47 mL and 1.41 mL and 1.74 mL (2×) and 1.79 mL
- Left hind limb volume, Mean [9]: 1.90 mL
- Left hind limb volume [9]: 1.78 mL and 1.59 mL and 2.17 mL and 1.98 mL and 1.99 mL
- Left hind limb volume, Mean [10]: 1.88 mL
- Left hind limb volume [10]: 1.74 mL and 1.62 mL and 2.19 mL and 1.95 mL and 1.91 mL
- Left hind limb volume, Mean [11]: 1.92 mL
- Left hind limb volume [11]: 1.71 mL and 1.60 mL and 2.09 mL and 2.06 mL and 2.12 mL
- Left hind limb volume, Mean [12]: 1.94 mL
- Left hind limb volume [12]: 1.69 mL and 1.65 mL and 1.98 mL and 2.20 mL and 2.18 mL
- Left hind limb volume, Mean [13]: 1.33 mL
- Left hind limb volume [13]: 1.17 mL and 1.40 mL and 1.37 mL and 1.32 mL and 1.38 mL
- Left hind limb volume, Mean [14]: 1.52 mL
- Left hind limb volume [14]: 1.36 mL and 1.49 mL (2×) and 1.71 mL and 1.55 mL
- Left hind limb volume, Mean [15]: 1.63 mL
- Left hind limb volume [15]: 1.39 mL and 1.68 mL (2×) and 1.69 mL (2×)
- Left hind limb volume, Mean [16]: 1.55 mL
- Left hind limb volume [16]: 1.36 mL and 1.60 mL (2×) and 1.58 mL and 1.62 mL
- Left hind limb volume, Mean [17]: 1.52 mL
- Left hind limb volume [17]: 1.32 mL and 1.60 mL and 1.61 mL and 1.51 mL and 1.59 mL
- Left hind limb volume, Mean [18]: 1.54 mL
- Left hind limb volume [18]: 1.33 mL and 1.56 mL and 1.61 mL and 1.58 mL and 1.62 mL
